# From patent US12129235B2, “TSPO binders” (The University Court of the University of Glasgow, priority 2018, dated 2024)
# Columns and labels:
# [1] = Dosimetry from whole-body mouse PET, OLINDA/EXM adult human phantom; format: in vivo, mice; details: for Effective Dose / Estimated Absorbed Dose, Adrenals / Estimated Absorbed Dose, Brain / Estimated Absorbed Dose, Breasts / Estimated Absorbed Dose, Gallbladder Wall / Estimated Absorbed Dose, Heart Wall / Estimated Absorbed Dose, Kidneys / Estimated Absorbed Dose, LLI Wall / Estimated Absorbed Dose, Liver / Estimated Absorbed Dose, Lungs / Estimated Absorbed Dose, Muscle / Estimated Absorbed Dose, Osteogenic Cells / Estimated Absorbed Dose, Ovaries / Estimated Absorbed Dose, Pancreas / Estimated Absorbed Dose, Red Marrow / Estimated Absorbed Dose, Skin / Estimated Absorbed Dose, Small Intestine / Estimated Absorbed Dose, Spleen / Estimated Absorbed Dose, Stomach Wall / Estimated Absorbed Dose, Thymus / Estimated Absorbed Dose, Thyroid / Estimated Absorbed Dose, Total Body / Estimated Absorbed Dose, ULI Wall / Estimated Absorbed Dose, Urinary Bladder Wall / Estimated Absorbed Dose, Uterus / Estimated Absorbed Dose, Testes: adult human phantom
# Experimental: 13 PET scans were performed with ^18F-LW223 (mean injected radioactivity of 19.55±2.1 MBq). Scans were acquired following i.v. bolus injection of ^18F-LW223 via tail vein or femoral vein shunt (invasive kinetic modelling experiments with β-probe automatic blood sampler) in rats. Test-retest scans were obtained in three rats following i.v. bolus of the radiotracer, with two weeks interval between test and retest imaging sessions. […] These scans were compared to baseline scans where no PK11195 was used. For displacement studies, rats received i.v. administration of ^18F-LW223 and scanned continuously for 120 min. […] A male and female mouse were initially used to derive the dosimetry estimates for ^18F-LW223 over a 4 h dynamic scan, followed by additional mice in a further study (in a study with a mean injected radioactivity of 10.83±5.6 MBq).
# The following organs were identified as source organs: brain, heart, lungs, gallbladder, liver, gut, adrenals, kidneys and bladder. A whole-body VOI was drawn around the animal body and was used for quantification of whole-body remainder activity as whole-body activity minus source organs activity. At each time point, the measured activity of the source organs was expressed as the percent injected dose (% ID).
# The residence time T, defined as the ratio of accumulated activity in the target organ (A) and injected activity (A0); τ=Ā/A0, was calculated as the area under the curve of the tissue time-activity curve normalized to % ID from time zero to infinity. The trapezoidal method was used for estimating T and after the last measured time point, it was assumed that the radiotracer underwent only physical decay with no biological elimination from the source organ. Calculated T were normalized for differences in mouse and human organ weights as a percentage of total body weight (based on data known from Khanuja et al.; Bielohuby et al.; Stabin et al.; Hindorf et al.; and Hui et al.), and entered into OLINDA/EXM 1.0 software, which was used to estimate organ doses and effective doses according to the male or female model implemented in OLINDA/EXM 1.0.
# [2] = target: TSPO (Homo sapiens, UniProt P30536); assay: ^18F-LW223 human autoradiography (stroke and diseased coronary tissue); format: binding; set-up: Paraffin embedded human deep brain stoke tissue and diseased coronary tissue sections; from tissue; host or cells: human deep brain stroke tissue and diseased coronary tissue sections
# TSPO, sequence (P30536 whole entry): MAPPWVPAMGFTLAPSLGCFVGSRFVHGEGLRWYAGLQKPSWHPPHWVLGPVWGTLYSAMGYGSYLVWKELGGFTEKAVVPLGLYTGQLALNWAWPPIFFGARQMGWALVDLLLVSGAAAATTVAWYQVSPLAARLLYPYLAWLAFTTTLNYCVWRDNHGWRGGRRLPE
# From the text: Slides were washed twice with buffer before being air dried and exposed to a Fujifilm BAS-IP MS 2040 phosphor screen (Fujifilm, Japan). Phosphor screens were imaged on a Fujifilm FLA5100 imaging plate reader (Fujifilm, Japan). Global regions of interest were drawn around whole tissue sections to calculate % SB. To calculate target:non-target ratios, regional sampling analysis was used within the same tissue in the highest and lowest uptake areas.
# [3] = Female, additional work with further mice
# [4] = Male, additional work with further mice
smiles,measurement,setting,value
"CC[C@@H](C)N(C)C(=O)c1nc2ccccc2c(-c2ccccc2)c1C[18F] [^18F-LW223, (R)-(N-sec-Butyl)-3-[19-fluoro]-methyl-N-methyl-4-phenylquinoline-2-carboxamide]",Effective Dose,[1]; [3],2.37E−02 mSv/MBq
same,"Estimated Absorbed Dose, Adrenals",[1]; [3],3.54E−02 mGy/MBq
same,"Estimated Absorbed Dose, Brain",[1]; [3],5.49E−03 mGy/MBq
same,"Estimated Absorbed Dose, Breasts",[1]; [3],8.51E−03 mGy/MBq
same,"Estimated Absorbed Dose, Gallbladder Wall",[1]; [3],2.40E−02 mGy/MBq
same,"Estimated Absorbed Dose, Heart Wall",[1]; [3],1.80E−02 mGy/MBq
same,"Estimated Absorbed Dose, Kidneys",[1]; [3],1.48E−02 mGy/MBq
same,"Estimated Absorbed Dose, LLI Wall",[1]; [3],8.94E−02 mGy/MBq
same,"Estimated Absorbed Dose, Liver",[1]; [3],1.88E−02 mGy/MBq
same,"Estimated Absorbed Dose, Lungs",[1]; [3],3.10E−02 mGy/MBq
same,"Estimated Absorbed Dose, Muscle",[1]; [3],9.70E−03 mGy/MBq
same,"Estimated Absorbed Dose, Osteogenic Cells",[1]; [3],1.52E−02 mGy/MBq
same,"Estimated Absorbed Dose, Ovaries",[1]; [3],1.63E−02 mGy/MBq
same,"Estimated Absorbed Dose, Pancreas",[1]; [3],1.25E−02 mGy/MBq
same,"Estimated Absorbed Dose, Red Marrow",[1]; [3],9.72E−03 mGy/MBq
same,"Estimated Absorbed Dose, Skin",[1]; [3],7.33E−03 mGy/MBq
same,"Estimated Absorbed Dose, Small Intestine",[1]; [3],1.29E−02 mGy/MBq
same,"Estimated Absorbed Dose, Spleen",[1]; [3],1.10E−02 mGy/MBq
same,"Estimated Absorbed Dose, Stomach Wall",[1]; [3],1.14E−02 mGy/MBq
same,"Estimated Absorbed Dose, Thymus",[1]; [3],1.06E−02 mGy/MBq
same,"Estimated Absorbed Dose, Thyroid",[1]; [3],8.89E−03 mGy/MBq
same,"Estimated Absorbed Dose, Total Body",[1]; [3],1.06E−02 mGy/MBq
same,"Estimated Absorbed Dose, ULI Wall",[1]; [3],1.24E−02 mGy/MBq
same,"Estimated Absorbed Dose, Urinary Bladder Wall",[1]; [3],1.49E−02 mGy/MBq
same,"Estimated Absorbed Dose, Uterus",[1]; [3],1.28E−02 mGy/MBq
same,Effective Dose,"[1]; Female, initial mouse study",1.84E−02 mSv/MBq
same,"Estimated Absorbed Dose, Adrenals","[1]; Female, initial mouse study",4.38E−02 mGy/MBq
same,"Estimated Absorbed Dose, Brain","[1]; Female, initial mouse study",8.38E−03 mGy/MBq
same,"Estimated Absorbed Dose, Breasts","[1]; Female, initial mouse study",1.16E−02 mGy/MBq
same,"Estimated Absorbed Dose, Gallbladder Wall","[1]; Female, initial mouse study",2.80E−02 mGy/MBq
same,"Estimated Absorbed Dose, Heart Wall","[1]; Female, initial mouse study",3.96E−02 mGy/MBq
same,"Estimated Absorbed Dose, Kidneys","[1]; Female, initial mouse study",2.67E−02 mGy/MBq
same,"Estimated Absorbed Dose, LLI Wall","[1]; Female, initial mouse study",1.61E−02 mGy/MBq
same,"Estimated Absorbed Dose, Liver","[1]; Female, initial mouse study",2.04E−02 mGy/MBq
same,"Estimated Absorbed Dose, Lungs","[1]; Female, initial mouse study",4.52E−02 mGy/MBq
same,"Estimated Absorbed Dose, Muscle","[1]; Female, initial mouse study",1.27E−02 mGy/MBq
same,"Estimated Absorbed Dose, Osteogenic Cells","[1]; Female, initial mouse study",2.01E−02 mGy/MBq
same,"Estimated Absorbed Dose, Ovaries","[1]; Female, initial mouse study",1.71E−02 mGy/MBq
same,"Estimated Absorbed Dose, Pancreas","[1]; Female, initial mouse study",1.68E−02 mGy/MBq
same,"Estimated Absorbed Dose, Red Marrow","[1]; Female, initial mouse study",1.25E−02 mGy/MBq
same,"Estimated Absorbed Dose, Skin","[1]; Female, initial mouse study",9.71E−03 mGy/MBq
same,"Estimated Absorbed Dose, Small Intestine","[1]; Female, initial mouse study",3.97E−02 mGy/MBq
same,"Estimated Absorbed Dose, Spleen","[1]; Female, initial mouse study",1.51E−02 mGy/MBq
same,"Estimated Absorbed Dose, Stomach Wall","[1]; Female, initial mouse study",1.54E−02 mGy/MBq
same,"Estimated Absorbed Dose, Thymus","[1]; Female, initial mouse study",1.47E−02 mGy/MBq
same,"Estimated Absorbed Dose, Thyroid","[1]; Female, initial mouse study",1.19E−02 mGy/MBq
same,"Estimated Absorbed Dose, Total Body","[1]; Female, initial mouse study",1.40E−02 mGy/MBq
same,"Estimated Absorbed Dose, ULI Wall","[1]; Female, initial mouse study",1.89E−02 mGy/MBq
same,"Estimated Absorbed Dose, Urinary Bladder Wall","[1]; Female, initial mouse study",1.51E−02 mGy/MBq
same,"Estimated Absorbed Dose, Uterus","[1]; Female, initial mouse study",1.67E−02 mGy/MBq
same,Effective Dose,[1]; [4],2.05E−02 mSv/MBq
same,"Estimated Absorbed Dose, Adrenals",[1]; [4],2.22E−02 mGy/MBq
same,"Estimated Absorbed Dose, Brain",[1]; [4],5.89E−03 mGy/MBq
same,"Estimated Absorbed Dose, Breasts",[1]; [4],7.18E−03 mGy/MBq
same,"Estimated Absorbed Dose, Gallbladder Wall",[1]; [4],2.01E−02 mGy/MBq
same,"Estimated Absorbed Dose, Heart Wall",[1]; [4],2.03E−02 mGy/MBq
same,"Estimated Absorbed Dose, Kidneys",[1]; [4],1.57E−02 mGy/MBq
same,"Estimated Absorbed Dose, LLI Wall",[1]; [4],7.82E−02 mGy/MBq
same,"Estimated Absorbed Dose, Liver",[1]; [4],1.30E−02 mGy/MBq
same,"Estimated Absorbed Dose, Lungs",[1]; [4],3.10E−02 mGy/MBq
same,"Estimated Absorbed Dose, Muscle",[1]; [4],8.04E−03 mGy/MBq
same,"Estimated Absorbed Dose, Osteogenic Cells",[1]; [4],1.20E−02 mGy/MBq
same,"Estimated Absorbed Dose, Pancreas",[1]; [4],1.03E−02 mGy/MBq
same,"Estimated Absorbed Dose, Red Marrow",[1]; [4],8.22E−03 mGy/MBq
same,"Estimated Absorbed Dose, Skin",[1]; [4],6.09E−03 mGy/MBq
same,"Estimated Absorbed Dose, Small Intestine",[1]; [4],1.11E−02 mGy/MBq
same,"Estimated Absorbed Dose, Spleen",[1]; [4],9.11E−03 mGy/MBq
same,"Estimated Absorbed Dose, Stomach Wall",[1]; [4],9.42E−03 mGy/MBq
same,"Estimated Absorbed Dose, Testes",[1]; [4],7.70E−03 mGy/MBq
same,"Estimated Absorbed Dose, Thymus",[1]; [4],8.97E−03 mGy/MBq
same,"Estimated Absorbed Dose, Thyroid",[1]; [4],7.90E−03 mGy/MBq
same,"Estimated Absorbed Dose, Total Body",[1]; [4],8.85E−03 mGy/MBq
same,"Estimated Absorbed Dose, ULI Wall",[1]; [4],9.96E−03 mGy/MBq
same,"Estimated Absorbed Dose, Urinary Bladder Wall",[1]; [4],1.16E−02 mGy/MBq
same,Effective Dose,"[1]; Male, initial mouse study",1.53E−02 mSv/MBq
same,"Estimated Absorbed Dose, Adrenals","[1]; Male, initial mouse study",3.72E−02 mGy/MBq
same,"Estimated Absorbed Dose, Brain","[1]; Male, initial mouse study",7.01E−03 mGy/MBq
same,"Estimated Absorbed Dose, Breasts","[1]; Male, initial mouse study",9.21E−03 mGy/MBq
same,"Estimated Absorbed Dose, Gallbladder Wall","[1]; Male, initial mouse study",2.42E−02 mGy/MBq
same,"Estimated Absorbed Dose, Heart Wall","[1]; Male, initial mouse study",3.07E−02 mGy/MBq
same,"Estimated Absorbed Dose, Kidneys","[1]; Male, initial mouse study",2.38E−02 mGy/MBq
same,"Estimated Absorbed Dose, LLI Wall","[1]; Male, initial mouse study",1.28E−02 mGy/MBq
same,"Estimated Absorbed Dose, Liver","[1]; Male, initial mouse study",1.56E−02 mGy/MBq
same,"Estimated Absorbed Dose, Lungs","[1]; Male, initial mouse study",3.57E−02 mGy/MBq
same,"Estimated Absorbed Dose, Muscle","[1]; Male, initial mouse study",1.02E−02 mGy/MBq
same,"Estimated Absorbed Dose, Osteogenic Cells","[1]; Male, initial mouse study",1.54E−02 mGy/MBq
same,"Estimated Absorbed Dose, Ovaries","[1]; Male, initial mouse study",1.40E−02 mGy/MBq
same,"Estimated Absorbed Dose, Pancreas","[1]; Male, initial mouse study",1.35E−02 mGy/MBq
same,"Estimated Absorbed Dose, Red Marrow","[1]; Male, initial mouse study",1.02E−02 mGy/MBq
same,"Estimated Absorbed Dose, Skin","[1]; Male, initial mouse study",7.82E−03 mGy/MBq
same,"Estimated Absorbed Dose, Small Intestine","[1]; Male, initial mouse study",3.38E−02 mGy/MBq
same,"Estimated Absorbed Dose, Spleen","[1]; Male, initial mouse study",1.19E−02 mGy/MBq
same,"Estimated Absorbed Dose, Stomach Wall","[1]; Male, initial mouse study",1.23E−02 mGy/MBq
same,"Estimated Absorbed Dose, Testes","[1]; Male, initial mouse study",9.46E−03 mGy/MBq
same,"Estimated Absorbed Dose, Thymus","[1]; Male, initial mouse study",1.16E−02 mGy/MBq
same,"Estimated Absorbed Dose, Thyroid","[1]; Male, initial mouse study",1.02E−02 mGy/MBq
same,"Estimated Absorbed Dose, Total Body","[1]; Male, initial mouse study",1.12E−02 mGy/MBq
same,"Estimated Absorbed Dose, ULI Wall","[1]; Male, initial mouse study",1.52E−02 mGy/MBq
same,"Estimated Absorbed Dose, Urinary Bladder Wall","[1]; Male, initial mouse study",1.37E−02 mGy/MBq
same,critical organ,[1]; additional work with further mice,lower intestinal wall
same,whole-body effective dose,"[1]; female phantom, additional work with further mice (Table 2)",23.7 μSv/MBq
same,whole-body effective dose,"[1]; female phantom, initial mouse study (Table 1)",18.4 μSv/MBq
same,critical organ,[1]; initial mouse study,adrenal gland
same,whole-body effective dose,"[1]; male phantom, additional work with further mice (Table 2)",20.5 μSv/MBq
same,whole-body effective dose,"[1]; male phantom, initial mouse study (Table 1)",15.3 μSv/MBq
same,blocking of ^18F-LW223 binding,"[2]; deep brain stroke tissue, blocking with PK11195 30 μM",could not be sufficiently blocked
same,target:non-target ratio,[2]; diseased coronary tissue,4.5
same,% specific binding (% SB),"[2]; diseased coronary tissue, blocking with LW223 10 μM",88.1±3.4%
same,% specific binding (% SB),"[2]; diseased coronary tissue, blocking with PK11195 10 μM",75.3±3.2%
same,target:non-target ratio,[2]; stroke tissue,7.5
same,% specific binding (% SB),"[2]; stroke tissue, blocking with LW223 10 μM",42.5±7.0%
